# Test results as given in patent publication US20240148821A1, “PHARMACEUTICAL USE OF CYCLIC PEPTIDE COMPOUND” (CHUGAI SEIYAKU KABUSHIKI KAISHA, priority 2021, published 2024).
# Numbered stars: 1 amine (or outer) side, 2 acyl side, 3 side chain; on linkers, the order of the positions; unused ones are H or OH. Bridge positions count the residues as written; N and C are the ends. Square brackets hold non-standard residues; d marks the D form. Peptide text beside a SMILES is read from it. * marks the point of attachment. hPhe(3,5-F2-4-CF3) = N[C@@H](CCc1cc(F)c(C(F)(F)F)c(F)c1)C(=O)O; hPhe(3-Cl-4-CF3) = N[C@@H](CCc1ccc(C(F)(F)F)c(Cl)c1)C(=O)O; NMePhe(4-CF3) = CN[C@@H](Cc1ccc(C(F)(F)F)cc1)C(=O)O; dβ3h(hPhe) = O=C(C[C@@H](CCc1ccccc1)N[*:1])[*:2]; NMePhe(4-Me) = CN[C@@H](Cc1ccc(C)cc1)C(=O)O; NMedβ3hAla = C[C@H](CC(=O)[*:2])N(C)[*:1]; X133 = O=C(C[C@H](N[*:1])C(F)(F)F)[*:2]; X42 = CC(C)C[C@H](CC(=O)[*:2])N(C)[*:1]; NMeGly(cPent) = CN[C@H](C(=O)O)C1CCCC1; NMeGly(cBu) = CN[C@H](C(=O)O)C1CCC1; NMeCha = CN[C@@H](CC1CCCCC1)C(=O)O; X76 = C=CC[C@H](CC(=O)[*:2])N[*:1]; NMehLeu = CN[C@@H](CCC(C)C)C(=O)O; X4 = C#CC[C@H](CC(=O)[*:2])N[*:1]; Hyp = O=C(O)[C@@H]1C[C@@H](O)CN1; NMeAhp(2) = CCCCC[C@H](NC)C(=O)O; NMeChg = CN[C@H](C(=O)O)C1CCCCC1; NMeF = CN[C@@H](Cc1ccccc1)C(=O)O; NMeI = CC[C@H](C)[C@H](NC)C(=O)O; d(β3hL) = CC(C)C[C@@H](N)CC(=O)O; NMeD = CN[C@@H](CC(=O)O)C(=O)O; dNMeD = CN[C@H](CC(=O)O)C(=O)O; NMeL = CN[C@@H](CC(C)C)C(=O)O; NMeNle = CCCC[C@H](NC)C(=O)O; NMeV = CN[C@H](C(=O)O)C(C)C; NMeA = CN[C@@H](C)C(=O)O; Piperidide = C1CCN(*)CC1; Pyrrolidide = C1CCN(*)C1; Ac5c = NC1(C(=O)O)CCCC1; Aze = O=C(O)[C@@H]1CCN1; Sar = CNCC(=O)O
# Target: protein-protein interaction between Kras and SOS1 (biotin-tagged human Kras loaded with GDP, His-tagged human SOS1) (Homo sapiens (Human), UniProt P01116, G12D)
# Assay: Protein-protein interaction inhibition between Kras and SOS1 (KrasG12D-SOS PPI) using AlphaScreen;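 further: kras produced in E. coli, Ni-coupled donor beads and streptavidin acceptor beads, excitation 680 nm with emission detected at 520–620 nm via singlet oxygen transfer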
# Assay type: biochemical
# Details: AlphaScreen; biotin-tagged human Kras loaded with GDP, His-tagged human SOS1; read-out: KRAS G12D-SOS PPI IC50
row,SMILES,IC50 [nM]
1,CC[C@H](C)[C@@H]1NC(=O)[C@H](CCC(C)C)N(C)C(=O)C[C@@H](C(=O)N2CCCCC2)N(C)C(=O)[C@H](C(C)C)N(C)C(=O)C2(CCCC2)NC(=O)[C@@H]2CCCN2C(=O)[C@H](CCc2ccc(C(F)(F)F)c(Cl)c2)NC(=O)CN(C)C(=O)[C@H](CC2CCCCC2)N(C)C(=O)[C@@H]2CCN2C(=O)[C@H](C)N(C)C1=O [Compound 1833] ([NMehLeu]I[NMeA][Aze][NMeCha][Sar][hPhe(3-Cl-4-CF3)]P[Ac5c][NMeV][NMeD]-Piperidide; lactam N-11),7.5
2,CC[C@H](C)[C@@H]1NC(=O)[C@H](C)N(C)C(=O)C[C@@H](C(=O)N2CCCCC2)N(C)C(=O)[C@H](C(C)C)N(C)C(=O)C2(CCCC2)NC(=O)[C@@H]2CCCN2C(=O)[C@H](CCc2ccc(C(F)(F)F)c(Cl)c2)NC(=O)[C@H]2CCCN2C(=O)[C@H](Cc2ccccc2)N(C)C(=O)[C@@H]2CCCN2C(=O)CN(C)C1=O [Compound 1839] ([NMeA]I[Sar]P[NMeF][dP][hPhe(3-Cl-4-CF3)]P[Ac5c][NMeV][NMeD]-Piperidide; lactam N-11),55
3,CCO[C@@H]1C[C@H]2C(=O)NC3(CCCC3)C(=O)N(C)[C@@H](CC(C)C)C(=O)N(C)[C@H](C)CC(=O)N(C)[C@@H](CC(C)C)C(=O)N[C@@H]([C@@H](C)CC)C(=O)N(C)CC(=O)N(C)CC(=O)N(C)[C@@H](CC3CCCCC3)C(=O)N(C)CC(=O)N[C@@H](CCc3ccc(C(F)(F)F)c(Cl)c3)C(=O)N2C1 [Compound 1851] (cyclo([Ac5c][NMeL][NMedβ3hAla][NMeL]I[Sar][Sar][NMeCha][Sar][hPhe(3-Cl-4-CF3)][Hyp](Et))),2.5
4,CC[C@H](C)[C@@H]1NC(=O)[C@H](CC(C)C)N(C)C(=O)C[C@@H](C(=O)N2CCCC2)N(C)C(=O)[C@H](C2CCCCC2)N(C)C(=O)C2(CCCC2)NC(=O)[C@@H]2CCCN2C(=O)[C@H](CCc2ccc(C(F)(F)F)c(Cl)c2)NC(=O)CN(C)C(=O)[C@H](Cc2ccc(C)cc2)N(C)C(=O)[C@@H]2CCN2C(=O)[C@H](C)N(C)C1=O [Compound 1852] ([NMeL]I[NMeA][Aze][NMePhe(4-Me)][Sar][hPhe(3-Cl-4-CF3)]P[Ac5c][NMeChg][NMeD]-Pyrrolidide; lactam N-11),0.94
5,CCCCC[C@H]1C(=O)N(C)CC(=O)N[C@@H](CCc2ccc(C(F)(F)F)c(Cl)c2)C(=O)N2CCC[C@H]2C(=O)NC2(CCCC2)C(=O)N(C)[C@@H](C(C)C)C(=O)N(C)[C@H](C(=O)N2CCCCC2)CC(=O)N(C)[C@@H](CC(C)C)C(=O)N[C@@H]([C@@H](C)CC)C(=O)N(C)[C@@H](C)C(=O)N2CC[C@H]2C(=O)N1C [Compound 1854] ([NMeL]I[NMeA][Aze][NMeAhp(2)][Sar][hPhe(3-Cl-4-CF3)]P[Ac5c][NMeV][NMeD]-Piperidide; lactam N-11),5.5
6,CCCC[C@H]1C(=O)N(C)[C@H](C(=O)N2CCCCC2)CC(=O)N(C)[C@@H](CC(C)C)C(=O)N[C@@H]([C@@H](C)CC)C(=O)N(C)[C@@H](C)C(=O)N2CC[C@H]2C(=O)N(C)[C@@H](CC2CCCCC2)C(=O)N(C)CC(=O)N[C@@H](CCc2ccc(C(F)(F)F)c(Cl)c2)C(=O)N2CCC[C@H]2C(=O)NC2(CCCC2)C(=O)N1C [Compound 1859] ([NMeL]I[NMeA][Aze][NMeCha][Sar][hPhe(3-Cl-4-CF3)]P[Ac5c][NMeNle][NMeD]-Piperidide; lactam N-11),15
7,CC[C@H](C)[C@@H]1NC(=O)[C@H]([C@@H](C)CC)N(C)C(=O)C[C@@H](C(=O)N2CCCCC2)N(C)C(=O)[C@H](C(C)C)N(C)C(=O)C2(CCCC2)NC(=O)[C@@H]2CCCN2C(=O)[C@H](CCc2ccc(C(F)(F)F)c(Cl)c2)NC(=O)CN(C)C(=O)[C@H](CC2CCCCC2)N(C)C(=O)[C@@H]2CCN2C(=O)[C@H](C)N(C)C1=O [Compound 1863] ([NMeI]I[NMeA][Aze][NMeCha][Sar][hPhe(3-Cl-4-CF3)]P[Ac5c][NMeV][NMeD]-Piperidide; lactam N-11),10
8,CC[C@H](C)[C@@H]1NC(=O)[C@H](CC(C)C)N(C)C(=O)C[C@@H](C(=O)N2CCCC2)N(C)C(=O)[C@H](C(C)C)N(C)C(=O)C2(CCCC2)NC(=O)[C@@H]2CCCN2C(=O)[C@H](CCc2ccc(C(F)(F)F)c(Cl)c2)NC(=O)CN(C)C(=O)[C@H](Cc2ccc(C)cc2)N(C)C(=O)[C@@H]2CCN2C(=O)[C@H](C)N(C)C1=O [Compound 1866] ([NMeL]I[NMeA][Aze][NMePhe(4-Me)][Sar][hPhe(3-Cl-4-CF3)]P[Ac5c][NMeV][NMeD]-Pyrrolidide; lactam N-11),2.8
9,CC[C@H](C)[C@@H]1NC(=O)[C@H](CC(C)C)N(C)C(=O)C[C@H](C(=O)N2CCCC2)N(C)C(=O)[C@H](C2CCCC2)N(C)C(=O)C2(CCCC2)NC(=O)[C@@H]2CCCN2C(=O)[C@H](CCc2ccc(C(F)(F)F)c(Cl)c2)NC(=O)CN(C)C(=O)[C@H](CC2CCCCC2)N(C)C(=O)[C@@H]2CCN2C(=O)[C@H](C)N(C)C1=O [Compound 1868] ([NMeL]I[NMeA][Aze][NMeCha][Sar][hPhe(3-Cl-4-CF3)]P[Ac5c][NMeGly(cPent)][dNMeD]-Pyrrolidide; lactam N-11),100
10,CC[C@H](C)[C@@H]1NC(=O)[C@H](CC(C)C)N(C)C(=O)C[C@@H](CCc2ccccc2)NC(=O)[C@H]([C@@H](C)CC)N(C)C(=O)C2(CCCC2)NC(=O)[C@@H]2CCCN2C(=O)[C@H](CCc2ccc(C(F)(F)F)c(Cl)c2)NC(=O)CN(C)C(=O)[C@H](Cc2ccc(C)cc2)N(C)C(=O)[C@@H]2CCN2C(=O)[C@H](C)N(C)C1=O [Compound 1874] (cyclo([Ac5c][NMeI][dβ3h(hPhe)][NMeL]I[NMeA][Aze][NMePhe(4-Me)][Sar][hPhe(3-Cl-4-CF3)]P)),400
11,C=CC[C@@H]1CC(=O)N(C)[C@@H](CC(C)C)C(=O)N[C@@H]([C@@H](C)CC)C(=O)N(C)[C@@H](C)C(=O)N2CC[C@H]2C(=O)N(C)[C@@H](Cc2ccc(C)cc2)C(=O)N(C)CC(=O)N[C@@H](CCc2ccc(C(F)(F)F)c(Cl)c2)C(=O)N2CCC[C@H]2C(=O)NC2(CCCC2)C(=O)N(C)[C@@H]([C@@H](C)CC)C(=O)N1 [Compound 1883] (cyclo([Ac5c][NMeI][X76][NMeL]I[NMeA][Aze][NMePhe(4-Me)][Sar][hPhe(3-Cl-4-CF3)]P)),65
12,"CC[C@H](C)[C@@H]1NC(=O)[C@H](CC(C)C)N(C)C(=O)C[C@@H](CC(C)C)NC(=O)[C@H]([C@@H](C)CC)N(C)C(=O)C2(CCCC2)NC(=O)[C@@H]2CCCN2C(=O)[C@H](CCc2cc(F)c(C(F)(F)F)c(F)c2)NC(=O)CN(C)C(=O)[C@H](Cc2ccc(C)cc2)N(C)C(=O)[C@@H]2CCN2C(=O)[C@H](C)N(C)C1=O [Compound 1891] (cyclo([Ac5c][NMeI][d(β3hL)][NMeL]I[NMeA][Aze][NMePhe(4-Me)][Sar][hPhe(3,5-F2-4-CF3)]P))",230
13,CC[C@H](C)[C@@H]1NC(=O)[C@H](CC(C)C)N(C)C(=O)C[C@@H](CC(C)C)NC(=O)[C@H]([C@@H](C)CC)N(C)C(=O)C2(CCCC2)NC(=O)[C@@H]2CCCN2C(=O)[C@H](CCc2ccc(C(F)(F)F)c(Cl)c2)NC(=O)CN(C)C(=O)[C@H](Cc2ccc(C(F)(F)F)cc2)N(C)C(=O)[C@@H]2CCN2C(=O)[C@H](C)N(C)C1=O [Compound 1899] (cyclo([Ac5c][NMeI][d(β3hL)][NMeL]I[NMeA][Aze][NMePhe(4-CF3)][Sar][hPhe(3-Cl-4-CF3)]P)),220
14,CC[C@H](C)[C@@H]1NC(=O)[C@H](CC(C)C)N(C)C(=O)C[C@@H](C(F)(F)F)NC(=O)[C@H]([C@@H](C)CC)N(C)C(=O)C2(CCCC2)NC(=O)[C@@H]2CCCN2C(=O)[C@H](CCc2ccc(C(F)(F)F)c(Cl)c2)NC(=O)CN(C)C(=O)[C@H](Cc2ccc(C)cc2)N(C)C(=O)[C@@H]2CCN2C(=O)[C@H](C)N(C)C1=O [Compound 1919] (cyclo([Ac5c][NMeI][X133][NMeL]I[NMeA][Aze][NMePhe(4-Me)][Sar][hPhe(3-Cl-4-CF3)]P)),210
15,CC[C@H](C)[C@@H]1NC(=O)[C@H](CC(C)C)N(C)C(=O)C[C@@H](C(=O)N(C)C)N(C)C(=O)[C@H]([C@@H](C)CC)N(C)C(=O)C2(CCCC2)NC(=O)[C@@H]2CCCN2C(=O)[C@H](CCc2ccc(C(F)(F)F)c(Cl)c2)NC(=O)CN(C)C(=O)[C@H](C2CCC2)N(C)C(=O)[C@@H]2CCN2C(=O)[C@H](C)N(C)C1=O [Compound 1961] ([NMeL]I[NMeA][Aze][NMeGly(cBu)][Sar][hPhe(3-Cl-4-CF3)]P[Ac5c][NMeI][NMeD]-NMe2; lactam N-11),1.8
16,C#CC[C@@H]1CC(=O)N(C)[C@@H](CC(C)C)C(=O)N[C@@H]([C@@H](C)CC)C(=O)N(C)[C@@H](C)C(=O)N2CC[C@H]2C(=O)N(C)[C@@H](Cc2ccc(C)cc2)C(=O)N(C)CC(=O)N[C@@H](CCc2ccc(C(F)(F)F)c(Cl)c2)C(=O)N2CCC[C@H]2C(=O)NC2(CCCC2)C(=O)N(C)[C@@H]([C@@H](C)CC)C(=O)N1 [Compound 1967] (cyclo([Ac5c][NMeI][X4][NMeL]I[NMeA][Aze][NMePhe(4-Me)][Sar][hPhe(3-Cl-4-CF3)]P)),77
17,CC[C@H](C)[C@@H]1NC(=O)[C@H](CC(C)C)N(C)C(=O)C[C@@H](CC(C)C)N(C)C(=O)[C@H]([C@@H](C)CC)N(C)C(=O)C2(CCCC2)NC(=O)[C@@H]2CCCN2C(=O)[C@H](CCc2ccc(C(F)(F)F)c(Cl)c2)NC(=O)CN(C)C(=O)[C@H](Cc2ccc(C)cc2)N(C)C(=O)[C@@H]2CCN2C(=O)[C@H](C)N(C)C1=O [Compound 1974] (cyclo([Ac5c][NMeI][X42][NMeL]I[NMeA][Aze][NMePhe(4-Me)][Sar][hPhe(3-Cl-4-CF3)]P)),45
18,CC[C@H](C)[C@@H]1NC(=O)[C@H](CC(C)C)N(C)C(=O)C[C@@H](CC(C)C)NC(=O)[C@H]([C@@H](C)CC)N(C)C(=O)C2(CCCC2)NC(=O)[C@@H]2CCCN2C(=O)[C@H](CCc2ccc(C(F)(F)F)c(Cl)c2)NC(=O)CN(C)C(=O)[C@H](Cc2ccc(C)cc2)N(C)C(=O)[C@@H]2CCN2C(=O)[C@H](C)N(C)C1=O [Compound 1995] (cyclo([Ac5c][NMeI][d(β3hL)][NMeL]I[NMeA][Aze][NMePhe(4-Me)][Sar][hPhe(3-Cl-4-CF3)]P)),340
